Literature values as cited in PubChem BioAssay AID1259409 (Chemical Carcinogenesis Research Information System (CCRIS), 2018).

System: rodent chemically induced tumor inhibition, incidence and multiplicity
Experiment: CCRIS tumor inhibitor studies

Structure (SMILES): C[C@]12CCCCC1=CC[C@@H]1[C@@H]2CC[C@]2(C)C(=O)[C@H](F)C[C@@H]12
- tumour outcome (control, treated, inhibition, significance) (Carcinogen: 7,12-DIMETHYLBENZ[A]ANTHRACENE, 57-97-6, Dose [Inhibitor]: 0, 200 UG IN 0.2 ML ACETONE 3/WK 1 HR BEFORE PROMOTER ON 2 D AND ALONE ON 1 D BEGINNING 18 D POST CARCINOGEN AND CONTINU, Route [Inhibitor]: DERMAL, Species: MOUSE, Strain/Sex: CD-1/FEMALE, Target Tissue: Type of Lesion: SKIN: PAPILLOMA, Dose [Carcinogen]: 200 NMOL IN 0.2 ML ACETONE ONCE AND MICE KEPT IN DARKENED ROOM FOR 48 HR POST INITIATION, Promoter: 12-O-TETRADECANOYLPHORBOL-13-ACETATE, 16561-29-8): 92%, 70%, 24%, not calculated
- tumour outcome (control, treated, inhibition, significance) (Carcinogen: AZOXYMETHANE, 25843-45-2, Dose [Inhibitor]: 0, 200 PPM IN DIET BEGINNING PRIOR TO CARCINOGEN DOSE AND CONTINUING FOR DURATION OF STUDY (STUDY DURATION: 54 WK), Route [Inhibitor]: ORAL, Species: RAT, Strain/Sex: F344/MALE, Target Tissue: Type of Lesion: COLON: ADENOCARCINOMA, Dose [Carcinogen]: 15 MG/KG 1/WK FOR 2 WK, Promoter: NONE USED): 72%, 50%, 31%, p<0.05
- tumour outcome (control, treated, inhibition, significance) (Carcinogen: AZOXYMETHANE, 25843-45-2, Dose [Inhibitor]: 0, 200 PPM IN DIET BEGINNING PRIOR TO CARCINOGEN DOSE AND CONTINUING FOR DURATION OF STUDY (STUDY DURATION: 54 WK), Route [Inhibitor]: ORAL, Species: RAT, Strain/Sex: F344/MALE, Target Tissue: Type of Lesion: COLON: ADENOMA, Dose [Carcinogen]: 15 MG/KG 1/WK FOR 2 WK, Promoter: NONE USED): 14%, 8%, 43%, not calculated
- tumour outcome (control, treated, inhibition, significance) (Carcinogen: AZOXYMETHANE, 25843-45-2, Dose [Inhibitor]: 0, 200 PPM IN DIET BEGINNING PRIOR TO CARCINOGEN DOSE AND CONTINUING FOR DURATION OF STUDY (STUDY DURATION: 54 WK), Route [Inhibitor]: ORAL, Species: RAT, Strain/Sex: F344/MALE, Target Tissue: Type of Lesion: SMALL INTESTINE: ADENOCARCINOMA, Dose [Carcinogen]: 15 MG/KG 1/WK FOR 2 WK, Promoter: NONE USED): 50%, 28%, 44%, not calculated
- tumour outcome (control, treated, inhibition, significance) (Carcinogen: AZOXYMETHANE, 25843-45-2, Dose [Inhibitor]: 0, 200 PPM IN DIET BEGINNING PRIOR TO CARCINOGEN DOSE AND CONTINUING FOR STUDY DURATION (STUDY DURATION: 54 WK), Route [Inhibitor]: ORAL, Species: RAT, Strain/Sex: F344/MALE, Target Tissue: Type of Lesion: SMALL INTESTINE: ADENOMA, Dose [Carcinogen]: 15 MG/KG 1/WK FOR 2 WK, Promoter: NONE USED): 3%, 0%, 100%, not calculated
- tumour outcome (control, treated, inhibition, significance) (Carcinogen: AZOXYMETHANE, 25843-45-2, Dose [Inhibitor]: 0, 400 PPM IN DIET BEGINNING PRIOR TO CARCINOGEN DOSE AND CONTINUING FOR DURATION OF STUDY (STUDY DURATION: 54 WK), Route [Inhibitor]: ORAL, Species: RAT, Strain/Sex: F344/MALE, Target Tissue: Type of Lesion: COLON: ADENOCARCINOMA, Dose [Carcinogen]: 15 MG/KG 1/WK FOR 2 WK, Promoter: NONE USED): 72%, 61%, 15%, not calculated
- tumour outcome (control, treated, inhibition, significance) (Carcinogen: AZOXYMETHANE, 25843-45-2, Dose [Inhibitor]: 0, 400 PPM IN DIET BEGINNING PRIOR TO CARCINOGEN DOSE AND CONTINUING FOR DURATION OF STUDY (STUDY DURATION: 54 WK), Route [Inhibitor]: ORAL, Species: RAT, Strain/Sex: F344/MALE, Target Tissue: Type of Lesion: COLON: ADENOMA, Dose [Carcinogen]: 15 MG/KG 1/WK FOR 2 WK, Promoter: NONE USED): 14%, 6%, 57%, not calculated
- tumour outcome (control, treated, inhibition, significance) (Carcinogen: AZOXYMETHANE, 25843-45-2, Dose [Inhibitor]: 0, 400 PPM IN DIET BEGINNING PRIOR TO CARCINOGEN DOSE AND CONTINUING FOR DURATION OF STUDY (STUDY DURATION: 54 WK), Route [Inhibitor]: ORAL, Species: RAT, Strain/Sex: F344/MALE, Target Tissue: Type of Lesion: SMALL INTESTINE: ADENOCARCINOMA, Dose [Carcinogen]: 15 MG/KG 1/WK FOR 2 WK, Promoter: NONE USED): 50%, 17%, 66%, p<0.01
- tumour outcome (control, treated, inhibition, significance) (Carcinogen: AZOXYMETHANE, 25843-45-2, Dose [Inhibitor]: 0, 400 PPM IN DIET BEGINNING PRIOR TO CARCINOGEN DOSE AND CONTINUING FOR DURATION OF STUDY (STUDY DURATION: 54 WK), Route [Inhibitor]: ORAL, Species: RAT, Strain/Sex: F344/MALE, Target Tissue: Type of Lesion: SMALL INTESTINE: ADENOMA, Dose [Carcinogen]: 15 MG/KG 1/WK FOR 2 WK, Promoter: NONE USED): 3%, 0%, 100%, not calculated
- tumour outcome (control, treated, inhibition, significance) (Carcinogen: N-METHYL-N-NITROSOUREA, 684-93-5, Dose [Inhibitor]: 0, 0.1% IN DIET FOR DURATION OF STUDY BEGINNING 1 WK PRIOR TO CARCINOGEN DOSE (STUDY DURATION: 187 D), Route [Inhibitor]: ORAL, Species: RAT, Strain/Sex: SPRAGUE-DAWLEY/FEMALE, Target Tissue: Type of Lesion: MAMMARY GLAND: CARCINOMA, Dose [Carcinogen]: 50 MG/KG ONCE AT 50 D OF AGE, Promoter: NONE USED): 100%, 100%, 0%, not significant
- tumour outcome (control, treated, inhibition, significance) (Carcinogen: N-METHYL-N-NITROSOUREA, 684-93-5, Dose [Inhibitor]: 0, 0.2% IN DIET FOR 2 WK BEGINNING 1 WK PRIOR TO CARCINOGEN DOSE (STUDY DURATION: 187 D), Route [Inhibitor]: ORAL, Species: RAT, Strain/Sex: SPRAGUE-DAWLEY/FEMALE, Target Tissue: Type of Lesion: MAMMARY GLAND: CARCINOMA, Dose [Carcinogen]: 50 MG/KG ONCE AT 50 D OF AGE, Promoter: NONE USED): 100%, 100%, 0%, not significant
- tumour outcome (control, treated, inhibition, significance) (Carcinogen: N-METHYL-N-NITROSOUREA, 684-93-5, Dose [Inhibitor]: 0, 0.2% IN DIET FOR DURATION OF STUDY BEGINNING 1 WK POST CARCINOGEN DOSE (STUDY DURATION: 180 D), Route [Inhibitor]: ORAL, Species: RAT, Strain/Sex: SPRAGUE-DAWLEY/FEMALE, Target Tissue: Type of Lesion: MAMMARY GLAND: CARCINOMA, Dose [Carcinogen]: 50 MG/KG ONCE AT 50 D OF AGE, Promoter: NONE USED): 100%, 95%, 5%, not significant
- tumour outcome (control, treated, inhibition, significance) (Carcinogen: N-METHYL-N-NITROSOUREA, 684-93-5, Dose [Inhibitor]: 0, 0.2% IN DIET FOR DURATION OF STUDY BEGINNING 1 WK PRIOR TO CARCINOGEN DOSE (STUDY DURATION: 187 D), Route [Inhibitor]: ORAL, Species: RAT, Strain/Sex: SPRAGUE-DAWLEY/FEMALE, Target Tissue: Type of Lesion: MAMMARY GLAND: CARCINOMA, Dose [Carcinogen]: 50 MG/KG ONCE AT 50 D OF AGE, Promoter: NONE USED): 100%, 100%, 0%, not significant

Structure (SMILES): C=CCS(=O)(=O)CC=C
- outcome (Carcinogen: Vinyl carbamate, 15805-73-9, Dose [Inhibitor]: 50 mg/kg once at beginning of experiment (Study duration: 25 wk), Route [Inhibitor]: Oral, Species: Mouse, Strain/Sex: F1 (Big Blue x A/J), Target Tissue: Type of Lesion: Lung: Papilliary tumors and solid tumors, Dose [Carcinogen]: 60 mg/kg once 2 hr after inhibitor (Study duration: 25 wk), Promoter: None): papilliary tumors: 84 (58%), 21 (13.5%), p<0.01 (significant decrease). solid tu

Structure (SMILES): CCCCOCCOCCOCc1cc2c(cc1CCC)OCO2
- tumour outcome (control, treated, inhibition, significance) (Carcinogen: N-NITROSODIETHYLAMINE, 55-18-5, Dose [Inhibitor]: 400 MG/KG IN 0.2 ML SESAME OIL (TOTAL VOL 0.1 ML) 2 HR PRIOR TO EACH CARCINOGEN DOSE (STUDY DURATION: 21 WK), Route [Inhibitor]: SUBCUTANEOUS, Species: HAMSTER, Strain/Sex: SYRIAN/MALE, Target Tissue: Type of Lesion: LUNG: ADENOMA, ADENOCARCINOMA, Dose [Carcinogen]: 17.8 MG/KG IN 0.9% SALINE (TOTAL VOL 0.1 ML) 2/WK FOR 20 WK, Promoter: NONE USED): 6/10 (60%), 0/10 (0%), 100%, p<0.01

Structure (SMILES): CC[C@H](C)C(=O)O[C@H]1C[C@@H](C)C=C2C=C[C@H](C)[C@H](CC[C@@H]3C[C@@H](O)CC(=O)O3)[C@H]21
- tumour outcome (control, treated, inhibition, significance) (Carcinogen: 4-(N-METHYL-N-NITROSAMINO)-1-(3-PYRIDYL)-1-BUTANONE, 64091-91-4, Dose [Inhibitor]: 0, 40 PPM IN THE DIET FOR 6 MO BEGINNING 1 WK POST CARCINOGEN DOSE (STUDY DURATION: 6 MO), Route [Inhibitor]: ORAL, Species: MOUSE, Strain/Sex: STRAIN-A/MALE, Target Tissue: Type of Lesion: LUNG: TUMOR, Dose [Carcinogen]: 10 UMOL ONCE, Promoter: NONE USED): 15/15 (100%), 15/15 (100%), 0%, not significant
- tumour outcome (control, treated, inhibition, significance) (Carcinogen: 4-(N-METHYL-N-NITROSAMINO)-1-(3-PYRIDYL)-1-BUTANONE, 64091-91-4, Dose [Inhibitor]: 0, 160 PPM IN THE DIET FOR 6 MO BEGINNING 1 WK POST CARCINOGEN DOSE (STUDY DURATION: 6 MO), Route [Inhibitor]: ORAL, Species: MOUSE, Strain/Sex: STRAIN-A/MALE, Target Tissue: Type of Lesion: LUNG: TUMOR, Dose [Carcinogen]: 10 UMOL ONCE, Promoter: NONE USED): 15/15 (100%), 15/15 (100%), 0%, not significant
- tumour outcome (control, treated, inhibition, significance) (Carcinogen: 4-(N-METHYL-N-NITROSAMINO)-1-(3-PYRIDYL)-1-BUTANONE, 64091-91-4, Dose [Inhibitor]: 0, 400 PPM IN THE DIET FOR 6 MO BEGINNING 1 WK POST CARCINOGEN DOSE (STUDY DURATION: 6 MO), Route [Inhibitor]: ORAL, Species: MOUSE, Strain/Sex: STRAIN-A/MALE, Target Tissue: Type of Lesion: LUNG: TUMOR, Dose [Carcinogen]: 10 UMOL ONCE, Promoter: NONE USED): 15/15 (100%), 12/14 (86%), 14%, not significant
